Holding throughout (type): cell-based, human
The subject of assay [1] is MDA-MB-231 breast cancer cells. Briefly: InnoCyte cell migration assay, MDA-MB-231. Conditions: MDA-MB-231 cells, 280 nM SMR peptide or 3 μM Latrunculin A, 24 hours. The procedure: 7-12. Cell migration assay. Cell migration assays were performed using the InnoCyte Cell Migration Assay (EMD Millipore Corporation, Temecula, Calif.) according to the manufacturer's instructions. Briefly, cell migration was monitored in the presence and absence of SMRwt peptides or latrunculin A (positive control inhibitor), which were added to the lower chamber of a 96-well plate. MCF-7 and MDA-MB-231 breast cancer cells and non-tumorigenic MCF-10A breast cells were harvested by 0.25% Trypsin-EDTA (Life Technologies) release and resuspended at 250,000500,000 cells/ml in serum-free RPMI 1640 media. A total of 25,000-50,000 cells was added to the upper chamber and allowed to migrate through an 8-μm pore-size membrane for 24 hours at 37° C. in a 5% CO2 atmosphere. Cells that migrated through the membrane were detached and labeled with Calcein-AM fluorescent dye. Fluorescence was measured using a Fluorescence Plate Reader (Molecular Devices, Sunnyvale, Calif.) with an excitation wavelength of 485 nm and an emission wavelength of 515 nm. The experiment was repeated in triplicate, and each conditioned experiment was performed in quadruplicate.

In the next assay the test system is MDA-MB-231 exosomes. Briefly: Western blot of exosomal proteins (Alix, vimentin, mortalin), MDA-MB-231. Particulars: MDA-MB-231 cells, 48 hr treatment. As for the experimental part:
(§1) 7-7. Protein analysis by Western blotting. Exosomes were isolated from cell culture supernatants as described above. Protein concentrations were determined by measuring absorbance at 280 nm (Nanodrop 2000). Cultured cells were treated with PEG-SMR-Clu, SMR-CPP peptides, MKT-077, Omeprazole or DMA at 37° C. for 48 hr. To evaluate mortalin, vimentin and exosome expression, Western blot analysis was performed using anti-mortalin (Grp-75), anti-Vimentin and anti-Alix antibodies, respectively (FIG. 12).
(§2) Exosomes and cell lysates were prepared by incubating 5-10 min at 95° C. in sample buffer. The lysates were subjected to SDS-PAGE under reducing conditions (150 mM DTT) in 4-20% Criterion™ TGX™ precast gels (BioRad, Hercules, Calif.) and then transferred onto a nitrocellulose membrane (Bio-Rad, Hercules, Calif.). Nitrocellulose membranes were blocked with 5% skim milk (MedSupply, Atlanta, Ga.) in TBS containing 0.05% Tween 20 (TBST) for 1 h at room temperature. The membranes were treated with anti-mortalin (Grp-75) mAb or anti-α-tubulin mAb for cell lysates (FIG. 15, Panels A and B) or with anti-Alix and anti-vimentin or anti-mortalin for exosomes (FIG. 12), followed by peroxidase-conjugated goat anti-mouse IgG. Bands were developed with an ECL chemiluminescent substrate (Santa Cruz Biotechnology, Santa Cruz, Calif.) and exposed to an ImageQuant LAS 4000 imaging system (GE Healthcare, Piscataway, N.J. 08854).

For assay [2], the system named is exosomes from MCF-7 cells. Briefly: Western blot of exosomal proteins (Alix, vimentin, mortalin), MCF-7. Particulars: 48 hr treatment, vs negative controls. As for the experimental part: as §1, §2
(In western blotting, separated proteins are transferred to a membrane and probed.)

A further assay concerns K562 exosomes. The assay is described as follows: Western blot of exosomal proteins (Alix, vimentin, mortalin), K562. Particulars: K562 cells, 48 hr treatment. The procedure:
as §1, §2

The next assay relates to K562 cells. The assay is described as follows: Complement-mediated cell cytotoxicity assay (trypan blue), K562. Conditions: for cell death under complement-positive conditions: 280 nM PEG-SMRwt-Clu or 560 nM SMRwt-CPP 60 min, then anti-CXCR4 antibody and NHS 60 min; for cell death under complement-negative conditions: 280 nM PEG-SMRwt-Clu or 560 nM SMRwt-CPP, 60 min. As for the experimental part: 7-9. Complement-mediated cell cytotoxicity assay. Complement-mediated cell cytotoxicity assays were performed as previously described (Reiter et al., Mol Immunol. (1992) 29(6): p. 771-81). Briefly, MCF-7, MDA-MB-231 and K562 cells were either mock-transfected or transfected with mortalin siRNA. Cells were incubated with 1 μg/ml of anti-CXCR4 antibody for 30 min at 4° C., followed by treatment with PEG-SMRwt-Clu peptide or PEG-SMRmut-Clu peptide or SMRwt-CPP peptide or SMRmut-CPP peptide alone, or treated with SMR peptide combined with complement from normal human serum (NHS) or heat-inactivated normal human serum (NIS) for 60 min at 37° C. Percentage of cells lysed were determined by a trypan blue exclusion assay using the TC10™ Automated Cell Counter (Bio-Rad, Richmond Calif.). (FIG. 14, FIG. 15, Panel D).

From US11472846B2, “Compositions and methods for treating diseases by inhibiting exosome release” (priority 2016, dated 2022) come the findings set out here.

For the sequence VGFPVAAVGFPVGRKKRRQRRRPPQ [SMRwt-CPP], in assay [1], the “reduced migration by” value is given as 46.39%. In the assay on MDA-MB-231 exosomes, the “Alix expression in exosomes” value is listed as “significantly decreased”, the “Mortalin expression in exosomes” value was “significantly decreased” and the “Vimentin expression in exosomes” value is on record as “significantly decreased”. In assay [2], the “Alix expression in exosomes” value is reported as “significantly decreased”, the “Mortalin expression in exosomes” value is “no significant changes” and the “Vimentin expression in exosomes” value is listed as “significantly decreased”. Besides, in the assay with K562 exosomes, the “Alix expression in exosomes” value is “significantly decreased” and the “Mortalin expression in exosomes” value is on record as “significantly decreased”. In addition, in the assay on K562 cells, the “cell death under complement-positive conditions” value is given as 23% and the “cell death under complement-negative conditions” value was 4.3%.
As to “NXNVGFPVAAVGFPVHPLSKHPYWSQP (SEQ ID NO: 37) [PEG-SMRwt-Clu]”, the “reduced migration by” value in assay [1] came out at 52.37%. Moreover, in the assay with MDA-MB-231 exosomes, the “Alix expression in exosomes” value is listed as “significantly decreased”, the “Mortalin expression in exosomes” value is recorded as “significantly decreased” and the “Vimentin expression in exosomes” value was “significantly decreased”. In assay [2], the “Alix expression in exosomes” value is “significantly decreased”, the “Mortalin expression in exosomes” value is given as “significantly decreased” and the “Vimentin expression in exosomes” value is “significantly decreased”. In the assay with K562 exosomes, the “Alix expression in exosomes” value is recorded as “significantly decreased” and the “Mortalin expression in exosomes” value is recorded as “significantly decreased”. Moreover, in the assay on K562 cells, the “cell death under complement-positive conditions” value stood at 55% and the “cell death under complement-negative conditions” value is given as 4.3%.
